In brackets after ≈: the same amount, converted by molar mass.
Experiments:
Type in all cases: functional
[1] = test system: Staphylococcus hominis; assay: Tested for the antimicrobial activity minimum inhibitory concentration) against Staphylococcus hominis
[2] = test system: Vero; assay: Tested for antiviral activity against Reo-1 virus in African green monkey kidney cell (Vero); conditions: Chlorocebus sabaeus
[3] = test system: Klebsiella pneumoniae; assay: Tested for the antimicrobial activity minimum inhibitory concentration) against Klebsiella pneumoniae
[4] = test system: Vero; assay: Tested for antiviral activity against coxsackie B-4 virus in African green monkey kidney cell (Vero); conditions: Chlorocebus sabaeus
[5] = test system: E6SM; assay: Tested for antiviral activity against vaccinia virus in human embryonic skin muscle fibroblast; conditions: Muscle tissue
[6] = test system: E6SM; assay: Tested for antiviral activity against VSV-virus in human embryonic skin muscle fibroblasts; conditions: Muscle tissue
[7] = test system: Vero; assay: Tested for antiviral activity against Sindbis virus in African green monkey kidney cell (Vero); conditions: Chlorocebus sabaeus
[8] = test system: Vero; assay: Tested for antiviral activity against Punta toro virus in African green monkey kidney cell (Vero); conditions: Chlorocebus sabaeus
[9] = test system: Vero; assay: Tested for cytotoxic activity in African green monkey kidney cells (Vero); conditions: Chlorocebus sabaeus
[10] = test system: HeLa; assay: Tested for cytotoxic activity in human epithelial cell line (HeLa)
[11] = test system: E6SM; assay: Tested for cytotoxic activity in human embryonic skin muscle fibroblast (E6SM); conditions: Muscle tissue
[12] = test system: HeLa; assay: Tested for antiviral activity against coxsackie-B4 virus in human epithelial cell line
[13] = test system: HeLa; assay: The compound was tested for antiviral activity against VSV-virus in human epithelial cells
[14] = test system: Vero; assay: Tested for antiviral activity against parainfluenza virus in african green monkey kidney cell (Vero); conditions: Chlorocebus sabaeus
[15] = test system: Escherichia coli; assay: Tested for the antimicrobial activity minimum inhibitory concentration) against Escherichia coli
[16] = test system: Staphylococcus aureus; assay: Tested for the antimicrobial activity as minimum inhibitory concentration against Staphylococcus aureus ATCC 6538
[17] = test system: Staphylococcus hominis; assay: Tested for the antimicrobial activity as minimum inhibitory concentration against Staphylococcus hominis ATCC 27844
[18] = test system: Staphylococcus epidermidis; assay: Tested for the antimicrobial activity as minimum inhibitory concentration against Staphylococcus epidermidis ATCC 12228
[19] = test system: Klebsiella pneumoniae; assay: Tested for the antimicrobial activity as minimum inhibitory concentration against Klebsiella pneumoniae ATCC 13883
[20] = test system: Escherichia coli; assay: Tested for the antimicrobial activity as minimum inhibitory concentration against Escherichia coli ATCC 25922

Compound | MIC [1] [µg/mL] | MIC [2] [µg/mL] | MIC [3] [µg/mL] | MIC [4] [µg/mL] | MIC [5] [µg/mL] | MIC [6] [µg/mL] | MIC [7] [µg/mL] | MIC [8] [µg/mL] | MCC [9] [µg/mL] | MCC [10] [µg/mL] | MCC [11] [µg/mL] | MIC [12] [µg/mL] | MIC [13] [µg/mL] | MCC [14] [µg/mL] | MIC [15] [µg/mL] | MIC [16] [µg/mL] | MIC [17] [µg/mL] | MIC [18] [µg/mL] | MIC [19] [µg/mL] | MIC [20] [µg/mL]
NC(=O)c1ncn([C@@H]2O[C@H](CO)[C@@H](O)[C@H]2O)n1 [RIBAVIRIN] | > 400 | 80 (≈ 328 µM) | > 400 | 240 (≈ 983 µM) | 240 (≈ 983 µM) | 400 (≈ 1640 µM) | 80 (≈ 328 µM) | 16 (≈ 65.5 µM) | > 400 | > 400 | > 400 | 48 (≈ 197 µM) | 240 (≈ 983 µM) | 48 | > 400 | – | – | – | – | –
CN[C@@H]1[C@H](O[C@H]2[C@H](O[C@H]3[C@H](O)[C@@H](O)[C@H](N=C(N)N)[C@@H](O)[C@@H]3N=C(N)N)O[C@@H](C)[C@]2(O)C=O)O[C@@H](CO)[C@H](O)[C@H]1O [STREPTOMYCIN] | – | – | – | – | – | – | – | – | – | – | – | – | – | – | – | 2.1 (≈ 3.61 µM) | 2.1 (≈ 3.61 µM) | 2.1 (≈ 3.61 µM) | 0.6 (≈ 1.03 µM) | 0.6 (≈ 1.03 µM)

Reference: ChEMBL document CHEMBL1135216, “New 2-(1-adamantylcarbonyl)pyridine and 1-acetyladamantane thiosemicarbazones-thiocarbonohydrazones: cell growth inhibitory, antiviral and antimicrobial activity evaluation” (Bioorg Med Chem Lett, 2002)
